According to patent US10342837B2, “Extracts and compositions of helichrysum odoratissimum for preventing and treating skin cancers” (University of Pretoria, priority 2013, dated 2019):
Values after ≈ are worked out from the molar mass of the structure shown. Numbered stars: 1 amine (or outer) side, 2 acyl side, 3 side chain; on linkers, the order of the positions; unused ones are H or OH. Bridge positions count the residues as written; N and C are the ends. Square brackets hold non-standard residues; d marks the D form. Peptide text beside a SMILES is read from it. I, II: the chains in the order shown. Actinocin(9to1) = Cc1c2oc3c(C)ccc(C(=O)[*:1])c3nc-2c(C(=O)[*:2])c(N)c1=O; NMeV = CN[C@H](C(=O)O)C(C)C; Sar = CNCC(=O)O

How the values were obtained:
Format in all cases: cell-based
A431 cells = assay: Light microscopy, haematoxylin and eosin staining of A431 cells (apoptosis); settings: 0.025 μg/ml, 72 h exposure
Experimental: The specific concentrations of extract were chosen due to the anti-proliferative activity that was observed. Exponentially growing cells were seeded at 100,000 cell per well in 6-well plates on heat-sterilized coverslips. After 24 h incubation at 37° C. and 5% […] for cell adherence, cells were exposed to 15 μg/ml, 30 μg/ml and 7.5 μg/ml of H. odoratissimum extract including vehicle-treated control cells (2% DMSO); cells propagate in growth medium, as well as 0.025 μg/ml Actinomycin D and incubated for 72 h at 37° C. Cells were then fixed in Bouin's fixative for 30 min and stained by standard haematoxylin and eosin staining procedures (Stander et al. 2009).
The influence of H. odoratissimum was compared to a medium control, vehicle-treated control and Actinomycin D (FIG. 3).

[1] = Cytotoxicity on U937 cells; settings: human
Excerpt: (§1) The cytotoxicity of the H. odoratissimum extract was first analyzed on the U937 cells to determine IC50 values at which the extract could be tested when evaluating the cytokine profile and to ensure that the concentrations of phytohemagglutinin (PHA) and pentoxifylline, used to determine the cytokine profile, was not toxic to the U937 cells.

[2] = Cell viability of U937 cells in cytokine production test; settings: human
Experimental: (§2) The levels of cytokine production (IL-8 and IL-12) from cell supernatants were measured by enzyme-linked immunosorbent assay (ELISA) according to the manufacturer's protocol (BD Biosciences, San Diego, Calif., USA). The levels of IL-12 were determined as it was reported to act as a potential anti-tumour agent (Brunda et al. 1993). IL-8 was measured as it plays a major role in the progression of various cancer cells by invasion, migration, adhesion, proliferation (Kuai et al. 2012). Briefly U937 cells were plated at a concentration of 2.5×10^5 cell per well in a 24-well plate. The cells were incubated for 24 h with 0.1 μg/ml PMA at 37° C. and 5% CO2 to allow the monocytes to differentiate into macrophages. The cells were treated with various concentrations of H. odoratissimum extracts. Controls included 20 μg/ml pentoxifylline, 5 μg/ml phytohemagglutinin (PHA), as well as vehicle-treated control cells (1% DMSO) and a medium only control. […]
(§3) H. odoratissimum was analyzed at 20 μg/ml, 15 μg/ml, 10 μg/ml and 5 μg/ml to determine whether the extract was able to induce the production of IL-12 and inhibit the production of IL-8 in phytohemagglutinin (PHA) stimulated U937 cells, the results of which are depicted in Table 2.

IL-12 = IL-12 production in U937 cells (ELISA); settings: for production of IL-12 of the controls compared to the medium control (in words): PHA at 5 μg/ml, pentoxifylline at 20 μg/ml
Experimental: The levels of cytokine production (IL-8 and IL-12) from cell supernatants were measured by enzyme-linked immunosorbent assay (ELISA) according to the manufacturer's protocol (BD Biosciences, San Diego, Calif., USA). The levels of IL-12 were determined as it was reported to act as a potential anti-tumour agent (Brunda et al. 1993). IL-8 was measured as it plays a major role in the progression of various cancer cells by invasion, migration, adhesion, proliferation (Kuai et al. 2012). Briefly U937 cells were plated at a concentration of 2.5×10^5 cell per well in a 24-well plate. The cells were incubated for 24 h with 0.1 μg/ml PMA at 37° C. and 5% CO2 to allow the monocytes to differentiate into macrophages. The cells were treated with various concentrations of H. odoratissimum extracts. Controls included 20 μg/ml pentoxifylline, 5 μg/ml phytohemagglutinin (PHA), as well as vehicle-treated control cells (1% DMSO) and a medium only control. The cells were incubated for a further 20 hrs and thereafter centrifuged at 980 rpm for 5 min to collect the cell free supernatant and analyse the concentration of IL-8 and IL-12.
as §3

IL-8 = IL-8 production in U937 cells (ELISA)
Experimental: as §2, §3

U937 cells [3] = assay: Cytotoxicity on U937 cells; settings: U937 cells
Excerpt: as §1

U937 cells [4] = assay: Cell viability of U937 cells in cytokine production test; settings: sample at 5 μg/ml; U937 cells
Experimental: as §2, §3

For Cc1c2oc3c(C)ccc(C(=O)N[C@@H]4C(=O)N[C@H](C(C)C)C(=O)N5CCC[C@H]5C(=O)N(C)CC(=O)N(C)[C@@H](C(C)C)C(=O)O[C@@H]4C)c3nc-2c(C(=O)N[C@@H]2C(=O)N[C@H](C(C)C)C(=O)N3CCC[C@H]3C(=O)N(C)CC(=O)N(C)[C@@H](C(C)C)C(=O)O[C@@H]2C)c(N)c1=O [Actinomycin D] (I: T[dV]P[Sar][NMeV] / II: T[dV]P[Sar][NMeV]; ester I:1-I:C, II:1-II:C; linker I:N-II:N via Actinocin(9to1)), the “A431 cell morphology (in words)” value (A431 cells) was “a great amount of cell death and total loss of cell viability”.

With CC(=O)CCCCn1c(=O)c2c(ncn2C)n(C)c1=O [Pentoxifylline, pentoxifylline] the IC50 [1] was 170 ± 6.4 µg/mL (≈ 611 µM), the viability at 20 h, 20 μg/ml [2] was 106% and the “production of IL-12 of the controls compared to the medium control (in words)” value (IL-12) was “inhibition”. The “IL-12” value (IL-12; sample at 20 μg/ml) was 1.37 ± 0.9 pg/mL and the “IL-8” value (IL-8; sample at 20 μg/ml) was 51.2 ± 7.2 pg/mL.

With phytohemagglutinin [PHA] the “IC50 (in μg/ml), cytotoxicity on U937 cells” value (U937 cells [3]) was 318 ± 7.8 µg/mL, the “Cell viability in %” value (U937 cells [4]) was 101% ± 0.3 and the “production of IL-12 of the controls compared to the medium control (in words)” value (IL-12) was “increase in IL-12”. The “IL-12” value (IL-12; sample at 5 μg/ml) was 9.49 ± 3.8 pg/mL and the “IL-8” value (IL-8; sample at 5 μg/ml) was 107 ± 5.6 pg/mL.
